From patent publication EP0745595A1, “3-(3-Aryloxyphenyl)-1-(substituted methyl)-s-triazine-2,4,6-oxo or thiotrione herbicidal agents” (American Cyanamid Company, priority 1995, dated 1996)

What was measured:
Assay type in all cases: in vivo
[1] = system: CASSIA OBTUSIFOLIA, L.; assay: Preemergence herbicidal evaluation, CASOB (Sicklepod); details: four to five weeks after treatment
From the text: (§1) Results of herbicide evaluation are expressed on a rating scale (0-9). The scale is based upon a visual observation of plant stand, vigor, malformation, size, chlorosis and overall plant appearance as compared with a control.
(§2) The preemergence herbicidal activity of the test compounds of the present invention is exemplified by the following tests in which the seeds of a variety of monocotyledonous and dicotyledonous plants are separately mixed with potting soil and planted on top of approximately one inch of soil in separate pint cups. […] The treated cups are then placed on greenhouse benches, watered and cared for in accordance with conventional greenhouse procedures. From four to five weeks after treatment, the tests are terminated and each cup is examined and rated according to the rating system provided in Example 40.
(§3) The compounds evaluated are reported by compound number given in Example 40.

[2] = system: SETARIA VIRIDIS, (L) BEAU; assay: Postemergence herbicidal evaluation, SETVI (Foxtail, Green); details: rated four to five weeks after treatment, averaged
Method: In the tests, seedling plants are grown in jiffy flats for about two weeks. The test compounds are dispersed in 50/50 acetone/water mixtures containing 0.5% TWEEN®20, a polyoxyethylene sorbitan monolaurate surfactant of Atlas Chemical Industries, in sufficient quantities to provide the equivalent of about 0.125 kg to 0.500 kg per hectare of active compound when applied to the plants through a spray nozzle operating at 40 psi for a predetermined time. After spraying, the plants are placed on greenhouse benches and are cared for in the usual manner, commensurate with conventional greenhouse practices. From four to five weeks after treatment, the seedling plants are examined and rated according to the rating system set forth below. Where more than one test is involved for a given compound, the data are averaged.
Plant species employed in these evaluations are reported by header abbreviation, common name and scientific name.
as §1

[3] = system: CASSIA OBTUSIFOLIA, L.; assay: Postemergence herbicidal evaluation, CASOB (Sicklepod); details: rated four to five weeks after treatment, averaged
How it was run: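 Spray: acetone/water 50/50 + 0.5% TWEEN 20; rate ~0.125–0.500 kg/ha; nozzle 40 psi; ~2-wk seedlings. Read: visual 0–9 rating at 4–5 wk post-treatment vs control; replicate tests averaged.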

[4] = system: ORYZA SATIVA, L. TEBONNET; assay: Rice tolerance to post-transplant applications under flooded paddy conditions, ORYSAT (Rice, Tebonnet); details: post-transplant rice; for ORYSAT herbicidal rating (rice tolerance): rated three to four weeks after treatment; for Herbicidal effect rating, ORYSAT: 3-4 weeks after treatment;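 as to ORYSAT herbicidal rating (rice tolerance): applied to flooded soil surface three days after transplanting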
How it was run: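 Rated on a visual 0–9 scale against untreated plants 3–4 weeks after application, rice (cv. Tebonnet) tolerance was tested by applying compounds (approx. 0.5–0.063 kg/ha, acetone/water 50/50) to flooded soil three days post-transplant, water kept 1.5–3 cm deep.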

[5] = system: ECHINOCHLOA ORYZOIDES (ARD.)FRITSCH; assay: Preemergence weed control under flooded paddy conditions, ECHORC (Watergrass (Calif.)); details: for ECHORC herbicidal rating: preemergence weeds, rated three to four weeks after treatment; for Herbicidal effect rating, ECHORC: preemergence, 3-4 weeks after treatment
How it was run: (§4)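 Visual 0-9 rating against untreated control, covering stand, vigor, malformation, size and chlorosis, scored three to four weeks post-treatment in a greenhouse. Application was into 1.5-3 cm flood water over silt loam sown at 0.5 cm. The 50/50 v/v aqueous/acetone doses were about 0.5, 0.25, 0.125 and 0.063 kg/ha.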

[6] = system: ZEA MAYS L.; assay: Preemergence herbicidal evaluation, ZEAMX (Corn, Field); details: for ZEAMX rating: four to five weeks after treatment; for ZEAMX herbicidal rating: rated four to five weeks after treatment
From the text: as §1, §2, §3

[7] = system: GLYCINE MAX(L) MERR. CV. WILLIAMS; assay: Preemergence herbicidal evaluation, GLXMAW (Soybean, Williams); details: four to five weeks after treatment
From the text: as §1, §2, §3

[8] = system: SAGITTARIA PYGMAEA, L.; assay: Preemergence weed control under flooded paddy conditions, SAGPY (Arrowhead (Pygmaea)); details: preemergence weeds, rated three to four weeks after treatment
How it was run: as §4

[9] = system: CHENOPODIUM ALBUM, L.; assay: Postemergence herbicidal evaluation, CHEAL (Lambsquarters, Common); details: rated four to five weeks after treatment, averaged
How it was run: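 Postemergence herbicidal activity on Chenopodium album was tested by spraying two-week-old seedlings grown in jiffy flats with compound in acetone/water (50/50) plus 0.5% TWEEN®20, using a 40 psi nozzle. Four to five weeks after treatment, stand, vigor, malformation, size, chlorosis and overall appearance were scored 0-9 relative to controls, with repeat tests averaged.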

[10] = system: AMBROSIA ARTEMISIIFOLIA, L.; assay: Postemergence herbicidal evaluation, AMBEL (Ragweed, Common); details: rated four to five weeks after treatment, averaged
How it was run: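 Postemergence herbicidal activity on AMBEL (common ragweed) was assessed on two-week-old seedlings grown in jiffy flats. Treatment solutions of 50/50 acetone/water with 0.5% TWEEN®20 surfactant were sprayed at 40 psi. After four to five weeks in the greenhouse, plants were scored 0-9 against a control for stand, vigor, malformation, size, chlorosis and overall appearance, with multiple tests averaged.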

[11] = system: ECHINOCHLOA CRUS-GALLI, (L) BEAU; assay: Preemergence herbicidal evaluation, ECHCG (Barnyardgrass); details: for ECHCG rating: four to five weeks after treatment; for ECHCG herbicidal rating: rated four to five weeks after treatment
From the text: as §1, §2, §3

[12] = system: ABUTILON THEOPHRASTI, MEDIC.; assay: Postemergence herbicidal evaluation, ABUTH (Velvetleaf); details: rated four to five weeks after treatment, averaged
How it was run: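 This postemergence herbicide test used two-week-old velvetleaf seedlings grown in jiffy flats. Each compound was sprayed at 40 psi as a dispersion in 50/50 acetone/water with 0.5% TWEEN®20 surfactant. Plants then received routine greenhouse care. After four to five weeks, injury was scored visually on a 0-9 scale against a control, and replicate tests were averaged.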

[13] = system: IPOMOEA SPP.; assay: Postemergence herbicidal evaluation, IPOSS (Morningglory spp.); details: rated four to five weeks after treatment, averaged
How it was run: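 In this greenhouse postemergence herbicide test on Ipomoea spp. (morningglory), compounds in 50/50 acetone/water with 0.5% TWEEN®20 were sprayed at 40 psi onto seedlings about two weeks old grown in jiffy flats. After four to five weeks, injury was scored on a 0-9 scale covering stand, vigor, malformation, size, chlorosis and overall appearance versus control, with repeat tests averaged.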

[14] = system: CHENOPODIUM ALBUM, L.; assay: Preemergence herbicidal evaluation, CHEAL (Lambsquarters, Common); details: for CHEAL rating: four to five weeks after treatment; for CHEAL herbicidal rating: rated four to five weeks after treatment
How it was run: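 Rated 0-9 by visual comparison with control (stand, vigor, malformation, size, chlorosis, overall appearance) four to five weeks after preemergence soil spray. Dose equivalent to about 0.125 to 0.50 kg per hectare, applied in aqueous acetone to freshly seeded cups kept in greenhouse.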

[15] = system: GALIUM APARINE; assay: Preemergence herbicidal evaluation, GALAP (Galium); details: rated four to five weeks after treatment
From the text: as §1, §2, §3

[16] = system: […], PRESL.; assay: Preemergence weed control under flooded paddy conditions, MOOVA (Monochoria); details: preemergence, 3-4 weeks after treatment
How it was run: as §4

CCOC(=O)Cn1c(=O)n(C)c(=O)n(-c2cc(Oc3c(F)cc(C(F)(F)F)cc3Cl)ccc2C#N)c1=O [Compound 11, Ethyl 3-{5-[(2-chloro-α,α,α,6-tetrafluoro-p-tolyl)oxy]-2-cyanophenyl}tetrahydro-5-methyl-2,4,6-trioxo-s-triazine-1(2H)-acetate]
CASOB rating ([1]; Rate 0.125 kg/ha): 0.0 | CASOB rating ([1]; Rate 0.250 kg/ha): 0.0 | CASOB rating ([1]; Rate 0.500 kg/ha): 0.0 | SETVI, herbicide rating (0-9) ([2]; Rate 0.125 kg/ha): 9.0 | SETVI, herbicide rating (0-9) ([2]; Rate 0.250 kg/ha): 9.0 | SETVI, herbicide rating (0-9) ([2]; Rate 0.500 kg/ha): 9.0 | CASOB, herbicide rating (0-9) ([3]; Rate 0.125 kg/ha): 9.0 | CASOB, herbicide rating (0-9) ([3]; Rate 0.250 kg/ha): 9.0 | CASOB, herbicide rating (0-9) ([3]; Rate 0.500 kg/ha): 9.0 | ORYSAT herbicidal rating (rice tolerance) ([4]; Rate 0.063 kg/ha): 0.0 | ORYSAT herbicidal rating (rice tolerance) ([4]; Rate 0.125 kg/ha): 0.0 | ORYSAT herbicidal rating (rice tolerance) ([4]; Rate 0.250 kg/ha): 1.0 | ORYSAT herbicidal rating (rice tolerance) ([4]; Rate 0.500 kg/ha): 1.0 | ECHORC herbicidal rating ([5]; Rate 0.063 kg/ha): 9.0 | ECHORC herbicidal rating ([5]; Rate 0.125 kg/ha): 9.0 | ECHORC herbicidal rating ([5]; Rate 0.250 kg/ha): 9.0 | ECHORC herbicidal rating ([5]; Rate 0.500 kg/ha): 9.0 | ZEAMX rating ([6]; Rate 0.125 kg/ha): 0.0 | ZEAMX rating ([6]; Rate 0.250 kg/ha): 0.0 | ZEAMX rating ([6]; Rate 0.500 kg/ha): 0.0 | GLXMAW rating ([7]; Rate 0.125 kg/ha): 0.0 | GLXMAW rating ([7]; Rate 0.250 kg/ha): 0.0 | GLXMAW rating ([7]; Rate 0.500 kg/ha): 0.0 | SAGPY herbicidal rating ([8]; Rate 0.063 kg/ha): 0.0 | SAGPY herbicidal rating ([8]; Rate 0.125 kg/ha): 0.0 | SAGPY herbicidal rating ([8]; Rate 0.250 kg/ha): 0.0 | SAGPY herbicidal rating ([8]; Rate 0.500 kg/ha): 0.0 | CHEAL, herbicide rating (0-9) ([9]; Rate 0.125 kg/ha): 9.0 | CHEAL, herbicide rating (0-9) ([9]; Rate 0.250 kg/ha): 9.0 | CHEAL, herbicide rating (0-9) ([9]; Rate 0.500 kg/ha): 9.0 | AMBEL, herbicide rating (0-9) ([10]; Rate 0.125 kg/ha): 9.0 | AMBEL, herbicide rating (0-9) ([10]; Rate 0.250 kg/ha): 9.0 | AMBEL, herbicide rating (0-9) ([10]; Rate 0.500 kg/ha): 9.0 | ECHCG rating ([11]; Rate 0.125 kg/ha): 0.0 | ECHCG rating ([11]; Rate 0.250 kg/ha): 0.0 | ECHCG rating ([11]; Rate 0.500 kg/ha): 0.0 | ABUTH, herbicide rating (0-9) ([12]; Rate 0.125 kg/ha): 9.0 | ABUTH, herbicide rating (0-9) ([12]; Rate 0.250 kg/ha): 9.0 | ABUTH, herbicide rating (0-9) ([12]; Rate 0.500 kg/ha): 9.0 | IPOSS, herbicide rating (0-9) ([13]; Rate 0.125 kg/ha): 9.0 | IPOSS, herbicide rating (0-9) ([13]; Rate 0.250 kg/ha): 9.0 | IPOSS, herbicide rating (0-9) ([13]; Rate 0.500 kg/ha): 9.0 | CHEAL rating ([14]; Rate 0.125 kg/ha): 9.0 | CHEAL rating ([14]; Rate 0.250 kg/ha): 9.0 | CHEAL rating ([14]; Rate 0.500 kg/ha): 9.0

Cn1c(=O)n(CC(=O)OC(C)(C)C)c(=O)n(-c2cc(Oc3c(F)cc(C(F)(F)F)cc3Cl)ccc2[N+](=O)[O-])c1=O [Compound 17, Tert-butyl 3-{5-[(2-chloro-α,α,α,6-tetra-fluoro-p-tolyl)oxy]-2-nitrophenyl}tetra-hydro-5-methyl-2,4,6-trioxo-s-triazine-1(2H)-acetate]
Herbicidal effect rating, ORYSAT ([4]; 0.125 kg/ha): 3.0 | Herbicidal effect rating, ORYSAT ([4]; 0.250 kg/ha): 3.0 | Herbicidal effect rating, ORYSAT ([4]; 0.500 kg/ha): 2.0 | Herbicidal effect rating, ECHORC ([5]; 0.125 kg/ha): 9.0 | Herbicidal effect rating, ECHORC ([5]; 0.250 kg/ha): 9.0 | Herbicidal effect rating, ECHORC ([5]; 0.500 kg/ha): 9.0 | ZEAMX herbicidal rating ([6]; Rate 0.125 kg/ha): 0.0 | ZEAMX herbicidal rating ([6]; Rate 0.250 kg/ha): 0.0 | ZEAMX herbicidal rating ([6]; Rate 0.500 kg/ha): 0.0 | GALAP herbicidal rating ([15]; Rate 0.125 kg/ha): 9.0 | GALAP herbicidal rating ([15]; Rate 0.250 kg/ha): 9.0 | GALAP herbicidal rating ([15]; Rate 0.500 kg/ha): 9.0 | ECHCG herbicidal rating ([11]; Rate 0.125 kg/ha): 0.0 | ECHCG herbicidal rating ([11]; Rate 0.250 kg/ha): 0.0 | ECHCG herbicidal rating ([11]; Rate 0.500 kg/ha): 0.0 | ABUTH, herbicide rating (0-9) ([12]; Rate 0.125 kg/ha): 9.0 | ABUTH, herbicide rating (0-9) ([12]; Rate 0.250 kg/ha): 9.0 | ABUTH, herbicide rating (0-9) ([12]; Rate 0.500 kg/ha): 9.0 | Herbicidal effect rating, MOOVA ([16]; 0.125 kg/ha): 9.0 | Herbicidal effect rating, MOOVA ([16]; 0.250 kg/ha): 9.0 | Herbicidal effect rating, MOOVA ([16]; 0.500 kg/ha): 9.0 | CHEAL herbicidal rating ([14]; Rate 0.125 kg/ha): 9.0 | CHEAL herbicidal rating ([14]; Rate 0.250 kg/ha): 9.0 | CHEAL herbicidal rating ([14]; Rate 0.500 kg/ha): 9.0
